Source: patent US9987242B2, “Treatment of Levodopa-induced Dyskinesias” (NORTHWESTERN UNIVERSITY, priority 2015, dated 2018)

System: NMDAR-mediated Ca2+ transients in dSPN spines
Test: NMDAR-mediated Ca2+ transients in dSPN spines, two-photon glutamate uncaging and Fluo-5F imaging
Type: cell-based, mice
From the text: dSPNs were identified by somatic tdTomato expression using two-photon excited fluorescence that was induced and detected using a Prairie Ultima laser scanning microscope system (Prairie Technologies). Fluorescent and bright-field images were viewed in register using a Dodt contrast detector system. Cells were patched using video microscopy with a Hitachi CCD camera and an Olympus 60×/1.0 NA lens. Green (Fluo 5F) and red (tdTomato; Alexa 568) signals were acquired using 810 nm excitation (Verdi/Mira laser). Following patch rupture the internal solution was allowed to equilibrate for 10-15 minutes before imaging. High magnification z-series of dendrite regions 50-100 μm from the soma were acquired with 0.072 μm2 pixels with 4 μs dwell time and 0.3 μm z-steps. […]
dSPNs were loaded with 25 μM Alexa 568 and 300 μM Fluo 5F via the internal recording solution, containing (in mM): 120 CsMeSO3, 5 NaCl, 10 TEA-Cl, 10 HEPES, 5 QX-314, 4 ATP-Mg and 0.3 GTP-Na. […] Changes in Fluo 5F fluorescence were averaged from 3 trials and measured as ΔF/Fo.
Glutamate uncaging was achieved using a Verdi/Mira (Coherent Laser Group, Santa Clara, Calif.) (Plotkin et al., 2014). […] Photolysis power was tuned via a third Pockels cell modulator (Con Optics, Danbury, Conn.) to achieve uEPSCs≤5 pA. uEPSC amplitudes were measured from averaged (3-5 repetitions) traces. […]

Cc1cc(C)c2c(N)c(C(=O)NCc3ccc(Cl)cc3)sc2n1 [VU10010]
decrease of NMDAR-mediated Ca2+ transients (SKF81297 3 μM, then muscarine and the M4R PAM co-applied, n=12): ~40% | NMDAR-mediated Ca2+ transients (VU10010 5 μM, dSPNs from LID mice): reduced NMDAR-mediated Ca2+ transients
